IC50 data for 22 compounds are collected here from ChEMBL document CHEMBL1649099, “Identification of potent and selective glucosylceramide synthase inhibitors from a library of N-alkylated iminosugars” (ACS Med Chem Lett, 2011).

Bounds are passed on as bounds.

As a reminder, the IC50 is the concentration at which inhibition is half-maximal.

The target of test [1] is T1, Ceramide glucosyltransferase (Mus musculus, UniProt O88693).
T1 sequence (O88693 whole entry): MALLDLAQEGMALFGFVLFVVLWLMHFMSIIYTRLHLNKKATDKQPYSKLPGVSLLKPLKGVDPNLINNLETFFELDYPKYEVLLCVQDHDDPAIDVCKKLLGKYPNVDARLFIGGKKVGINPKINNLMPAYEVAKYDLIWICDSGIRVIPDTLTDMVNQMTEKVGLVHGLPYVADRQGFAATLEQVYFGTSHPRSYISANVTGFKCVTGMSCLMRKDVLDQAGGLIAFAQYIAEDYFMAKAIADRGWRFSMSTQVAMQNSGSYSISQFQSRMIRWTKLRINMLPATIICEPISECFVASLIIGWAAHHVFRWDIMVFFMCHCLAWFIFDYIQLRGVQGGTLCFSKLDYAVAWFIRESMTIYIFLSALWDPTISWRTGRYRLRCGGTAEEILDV
As to the kind of experiment: Inhibition of glucosylceramide synthase in mouse RAW cells preincubated with compound for 15 mins by in-situ enzyme inhibition assay. It counts as cell-based.

Test [2] has as its target T2, Lysosomal acid glucosylceramidase (Homo sapiens, UniProt P04062).
T2 sequence (P04062 whole entry): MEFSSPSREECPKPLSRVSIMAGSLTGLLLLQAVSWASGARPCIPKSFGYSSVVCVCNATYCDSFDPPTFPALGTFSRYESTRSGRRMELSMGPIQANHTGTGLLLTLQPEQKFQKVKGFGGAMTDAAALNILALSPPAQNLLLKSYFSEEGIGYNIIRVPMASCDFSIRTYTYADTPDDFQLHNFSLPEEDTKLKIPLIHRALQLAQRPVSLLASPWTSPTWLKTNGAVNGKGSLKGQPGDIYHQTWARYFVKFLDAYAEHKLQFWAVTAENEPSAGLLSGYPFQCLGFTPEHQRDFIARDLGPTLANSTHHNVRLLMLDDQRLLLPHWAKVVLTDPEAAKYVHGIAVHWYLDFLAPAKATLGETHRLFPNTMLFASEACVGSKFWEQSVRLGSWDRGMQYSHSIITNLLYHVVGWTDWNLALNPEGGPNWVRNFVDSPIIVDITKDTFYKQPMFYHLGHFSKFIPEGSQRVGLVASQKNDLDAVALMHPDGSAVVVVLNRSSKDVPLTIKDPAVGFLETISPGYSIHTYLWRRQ
Kind of test: Inhibition of recombinant GBA1 preincubated with compound for 30 mins using 4-methylumbelliferyl-B-glucoside substrate by fluorimetric assay.

The target of the next test is T3, Beta-glucosidase (Homo sapiens, UniProt Q9HCG7).
T3 sequence (Q9HCG7 whole entry): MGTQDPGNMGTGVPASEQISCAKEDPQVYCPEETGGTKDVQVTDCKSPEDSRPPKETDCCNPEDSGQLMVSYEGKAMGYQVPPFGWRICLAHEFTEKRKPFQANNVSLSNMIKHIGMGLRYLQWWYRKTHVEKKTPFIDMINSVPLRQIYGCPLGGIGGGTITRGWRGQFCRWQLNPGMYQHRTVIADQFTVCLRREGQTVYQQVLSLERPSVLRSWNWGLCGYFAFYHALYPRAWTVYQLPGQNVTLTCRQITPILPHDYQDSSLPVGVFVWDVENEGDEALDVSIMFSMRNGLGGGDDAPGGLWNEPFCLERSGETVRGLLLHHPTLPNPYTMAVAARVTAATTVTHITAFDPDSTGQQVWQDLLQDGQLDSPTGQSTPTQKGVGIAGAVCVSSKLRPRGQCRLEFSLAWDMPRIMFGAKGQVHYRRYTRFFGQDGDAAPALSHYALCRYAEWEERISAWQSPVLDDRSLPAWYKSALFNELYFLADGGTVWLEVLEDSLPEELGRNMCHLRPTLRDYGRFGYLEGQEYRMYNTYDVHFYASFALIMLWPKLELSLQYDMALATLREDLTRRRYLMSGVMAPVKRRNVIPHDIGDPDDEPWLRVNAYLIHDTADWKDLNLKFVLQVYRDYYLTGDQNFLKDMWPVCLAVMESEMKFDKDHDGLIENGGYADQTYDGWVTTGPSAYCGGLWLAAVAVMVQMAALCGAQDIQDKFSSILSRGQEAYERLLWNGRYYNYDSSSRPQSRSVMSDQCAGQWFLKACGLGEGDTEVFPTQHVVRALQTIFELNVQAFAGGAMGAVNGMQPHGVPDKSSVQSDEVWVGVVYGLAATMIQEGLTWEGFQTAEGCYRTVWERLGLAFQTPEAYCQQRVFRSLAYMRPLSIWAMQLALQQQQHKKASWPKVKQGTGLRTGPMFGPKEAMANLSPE
As to the kind of experiment: Inhibition of recombinant GBA2 preincubated with compound for 30 mins using 4-methylumbelliferyl-B-glucoside substrate by fluorimetric assay.

For the next test, the target named is Sucrase-isomaltase (Mus musculus, UniProt B5THE3). As to the kind of experiment: Inhibition of sucrase in mouse intestinal […] by glucose release assay.
Sucrase-isomaltase, sequence (B5THE3 whole entry): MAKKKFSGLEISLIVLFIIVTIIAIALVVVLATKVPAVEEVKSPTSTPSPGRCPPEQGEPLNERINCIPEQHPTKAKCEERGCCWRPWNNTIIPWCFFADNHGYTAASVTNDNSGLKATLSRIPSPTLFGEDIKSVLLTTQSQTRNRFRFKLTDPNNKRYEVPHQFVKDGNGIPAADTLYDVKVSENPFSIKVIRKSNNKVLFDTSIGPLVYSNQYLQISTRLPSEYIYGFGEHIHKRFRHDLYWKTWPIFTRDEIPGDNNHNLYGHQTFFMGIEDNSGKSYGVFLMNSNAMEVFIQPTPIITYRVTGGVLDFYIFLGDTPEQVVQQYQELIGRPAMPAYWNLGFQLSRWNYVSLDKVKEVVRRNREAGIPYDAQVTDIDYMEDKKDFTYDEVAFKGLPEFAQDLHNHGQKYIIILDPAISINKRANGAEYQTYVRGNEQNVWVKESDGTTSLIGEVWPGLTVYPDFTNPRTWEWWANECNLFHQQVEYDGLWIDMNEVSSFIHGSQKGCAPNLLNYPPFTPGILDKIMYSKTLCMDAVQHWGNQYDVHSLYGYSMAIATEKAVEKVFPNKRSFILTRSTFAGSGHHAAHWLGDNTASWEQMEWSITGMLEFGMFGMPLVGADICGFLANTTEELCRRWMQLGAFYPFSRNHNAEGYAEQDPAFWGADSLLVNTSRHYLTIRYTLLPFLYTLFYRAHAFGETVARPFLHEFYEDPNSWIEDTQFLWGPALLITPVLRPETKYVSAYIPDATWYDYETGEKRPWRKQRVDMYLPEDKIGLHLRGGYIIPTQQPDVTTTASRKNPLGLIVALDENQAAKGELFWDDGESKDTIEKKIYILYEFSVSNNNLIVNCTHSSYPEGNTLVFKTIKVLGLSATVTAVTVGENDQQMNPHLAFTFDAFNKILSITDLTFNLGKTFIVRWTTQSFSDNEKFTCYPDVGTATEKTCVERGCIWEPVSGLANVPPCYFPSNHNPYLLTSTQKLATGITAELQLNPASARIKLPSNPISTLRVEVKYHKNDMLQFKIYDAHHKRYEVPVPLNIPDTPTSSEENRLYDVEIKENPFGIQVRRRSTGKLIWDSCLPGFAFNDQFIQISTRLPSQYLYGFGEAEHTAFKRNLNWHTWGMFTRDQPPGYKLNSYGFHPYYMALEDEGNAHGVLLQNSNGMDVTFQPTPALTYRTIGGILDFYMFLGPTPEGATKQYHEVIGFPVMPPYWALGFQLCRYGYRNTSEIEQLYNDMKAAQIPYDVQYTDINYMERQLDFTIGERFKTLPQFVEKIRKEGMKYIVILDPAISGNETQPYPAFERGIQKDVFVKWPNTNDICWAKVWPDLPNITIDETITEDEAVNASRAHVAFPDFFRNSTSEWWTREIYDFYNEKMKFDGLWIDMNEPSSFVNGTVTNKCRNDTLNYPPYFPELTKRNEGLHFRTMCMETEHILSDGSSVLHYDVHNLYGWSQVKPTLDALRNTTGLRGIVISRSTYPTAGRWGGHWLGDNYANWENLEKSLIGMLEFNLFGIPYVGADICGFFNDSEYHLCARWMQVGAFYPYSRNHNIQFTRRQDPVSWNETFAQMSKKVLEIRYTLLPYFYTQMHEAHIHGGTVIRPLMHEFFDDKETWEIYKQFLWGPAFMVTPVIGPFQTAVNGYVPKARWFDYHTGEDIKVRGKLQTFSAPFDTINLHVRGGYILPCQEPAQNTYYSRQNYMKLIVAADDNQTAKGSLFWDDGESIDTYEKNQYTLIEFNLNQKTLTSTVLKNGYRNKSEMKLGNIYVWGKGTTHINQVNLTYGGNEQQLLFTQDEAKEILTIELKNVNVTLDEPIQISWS

In the case of `CCCCCCCCCOCCCCCN1C[C@H](O)[C@@H](O)[C@H](O)[C@@H]1CO`, the 50% inhibitory concentration (IC50) in test [1] was less than 0.05 µM.
As for `CCCCCCCCOCCCCCN1C[C@H](O)[C@@H](O)[C@H](O)[C@@H]1CO`, the half-inhibitory concentration (IC50) in test [2] is 15 µM; on Beta-glucosidase, 0.015 µM; in test [1], 0.05 µM; against Sucrase-isomaltase it was greater than 1000 µM.
As to `CCCCCOCCCCCN1C[C@H](O)[C@@H](O)[C@H](O)[C@H]1CO`, the results for the IC50 (in test [2]; on Beta-glucosidase; in test [1]) were 705 µM, 0.04 µM and 2 µM, respectively.
As for `CCCCCCCCN1C[C@H](O)[C@@H](O)[C@H](O)[C@H]1CO`, the half-maximal inhibitory concentration (IC50) in test [2] was 4 µM; on Beta-glucosidase it was 0.02 µM; in test [1], 4 µM; on Sucrase-isomaltase, 0.75 µM.
Take `CCCCCCCCOCCCCCN1C[C@H](O)[C@@H](O)[C@H](O)[C@H]1CO`: the IC50 amounted to 0.5 µM in test [2], 0.01 µM at Beta-glucosidase, 0.2 µM in test [1] and 1 µM on Sucrase-isomaltase.
The like results for `CCCCCN1C[C@H](O)[C@@H](O)[C@H](O)[C@H]1CO` were, in that order, 500 µM, 0.4 µM, greater than 20 µM and 2 µM.
The like results for `CCCCCCCOCCCCCN1C[C@H](O)[C@@H](O)[C@H](O)[C@H]1CO` were, in that order, 1.75 µM, 0.015 µM, 0.3 µM and 1 µM.
Regarding `CCCCCOCCCCCN1C[C@H](O)[C@@H](O)[C@H](O)[C@@H]1CO`, the half-inhibitory concentration (IC50) is 100 µM in test [2], 0.015 µM at Beta-glucosidase and 0.15 µM in test [1].
Regarding `CCCCCCCCN1C[C@H](O)[C@@H](O)[C@H](O)[C@@H]1CO`, the half-maximal inhibitory concentration (IC50) in test [2] turned out to be 25 µM; at Beta-glucosidase, 0.02 µM; in test [1] it was 4 µM; against Sucrase-isomaltase it was 60 µM.
Consider `CCCCCCN1C[C@H](O)[C@@H](O)[C@H](O)[C@@H]1CO`, for which the 50% inhibitory concentration (IC50) is greater than 1000 µM in test [2], 0.14 µM at Beta-glucosidase, 40 µM in test [1] and 600 µM on Sucrase-isomaltase.
The matching figures for `CCCCCN1C[C@H](O)[C@@H](O)[C@H](O)[C@@H]1CO`: greater than 1000 µM, 0.25 µM, 15 µM and greater than 1000 µM.
Consider `CCCCCCCCCOCCCCCN1C[C@H](O)[C@@H](O)[C@H](O)[C@H]1CO`, for which the half-inhibitory concentration (IC50) in test [1] amounted to 0.1 µM.
Turning to `CCCCCCCN1C[C@H](O)[C@@H](O)[C@H](O)[C@@H]1CO`, the concentration for half-maximal inhibition (IC50) in test [2] amounted to 700 µM; on Beta-glucosidase it was 0.04 µM; in test [1] it was 4 µM.
Consider `CCCCCCCCCN1C[C@H](O)[C@@H](O)[C@H](O)[C@@H]1CO`, for which the half-inhibitory concentration (IC50) on Sucrase-isomaltase was greater than 1000 µM.
As for `CCCCOCCCCCN1C[C@H](O)[C@@H](O)[C@H](O)[C@H]1CO`, the concentration for half-maximal inhibition (IC50) in test [2] turned out to be 30 µM; on Beta-glucosidase it was 0.06 µM; in test [1] it was 4 µM; against Sucrase-isomaltase, 2 µM.
In the case of `CCCCCCN1C[C@H](O)[C@@H](O)[C@H](O)[C@H]1CO`, the 50% inhibitory concentration (IC50) in test [2] is 80 µM; at Beta-glucosidase, 0.11 µM; in test [1] it was greater than 20 µM; on Sucrase-isomaltase it was 1 µM.
For `CCCCCCCN1C[C@H](O)[C@@H](O)[C@H](O)[C@H]1CO`, the 50% inhibitory concentration (IC50) in test [2] was found to be 18.5 µM; on Beta-glucosidase, 0.045 µM; in test [1], 40 µM.
On to `CCCCCCCCCN1C[C@H](O)[C@@H](O)[C@H](O)[C@H]1CO`, for which the midpoint of inhibition against Sucrase-isomaltase, the IC50, lay at 0.4 µM.
Turning to `CCCCOCCCCCN1C[C@H](O)[C@@H](O)[C@H](O)[C@@H]1CO`, the 50% inhibitory concentration (IC50) was greater than 1000 µM in test [2], 0.09 µM at Beta-glucosidase, 2 µM in test [1] and greater than 1000 µM against Sucrase-isomaltase.
In the case of `CCCCCCOCCCCCN1C[C@H](O)[C@@H](O)[C@H](O)[C@@H]1CO`, the results for the IC50 (on Beta-glucosidase; in test [1]) were 0.025 µM and 0.1 µM, respectively.
In the case of `CCCCCCOCCCCCN1C[C@H](O)[C@@H](O)[C@H](O)[C@H]1CO`, the values for the IC50 (at Beta-glucosidase; in test [1]) were 0.008 µM and 1 µM, respectively.
`CCCCCCCOCCCCCN1C[C@H](O)[C@@H](O)[C@H](O)[C@@H]1CO`: the half-inhibitory concentration (IC50) in test [2] was 40 µM; at Beta-glucosidase, 0.015 µM; in test [1] it was 0.05 µM; against Sucrase-isomaltase, greater than 1000 µM.
